# Test results taken from patent publication US20220409582A1, “COMBINATION THERAPIES COMPRISING PANOBINOSTAT FOR THE TREATMENT OF CHOLANGIOCARCINOMA” (SEALD AS, priority 2019, published 2022).
# Like-named read-outs stand apart in the source and are kept apart here.
# Experiments:
# CC-SW-1 cell line = experiment: Cell TitreGlo cell viability, CC-SW-1 cholangiocarcinoma cells; format: cell-based, human; conditions: for IC50: Homo sapiens
# Protocol: (§1) Various cholangiocarcinoma (CCA) cell lines were used for this drug screening.
# (§2) For panobinostat as single substance treatment seven cholangiocarcinoma cell lines were used. Panobinostat was then tested in combination with 23 other drugs on four cholangiocarcinoma cell lines. A single concentration of the combination drug was added based on a previously determined IC20 value for the combination drug tested alone on each of the four cell lines.
# (§3) The viability data for each plate were normalized to the average of eight replicates of DMSO at 0.1% and seven replicates of Benzethonium Chloride (BzCl) at 100 uM. BzCl serves as a cell killing control that accounts for background signal from dead cells in the CTG luminescence assay. Raw luminescence data were normalized according to the following equation: […]
# (§4) The normalized data for each dose response curve were then fit using the function drm from the R package drc. This function uses a four parameter log-logistic curve to fit the dose response data, resulting in values for curve minimum, maximum, IC50, and slope. In the case where a log-logistic curve could not be fit to the data, a logistic curve was used instead.
# HuCC-T1 cell line = experiment: Cell TitreGlo cell viability, HuCC-T1 cholangiocarcinoma cells; format: cell-based, human; conditions: for IC50: Homo sapiens, HuCCT-1
# Protocol: as §1, §2, §3, §4
# EGI-1 cell line = experiment: Cell TitreGlo cell viability, EGI-1 cholangiocarcinoma cells; format: cell-based, human
# Protocol: as §1, §2, §3, §4
# CC-LP-1 cell line = experiment: Cell TitreGlo cell viability, CC-LP-1 cholangiocarcinoma cells; format: cell-based; conditions: Homo sapiens, single substance treatment, cell viability 48 h post drug addition
# Protocol: as §1
# (§5) For panobinostat as single substance treatment seven cholangiocarcinoma cell lines were used. Panobinostat was then tested in combination with 23 other drugs on four cholangiocarcinoma cell lines. A single concentration of the combination drug was added based on a previously determined IC20 value for the combination drug tested alone on each of the four cell lines. The cell line TFK-1 was insensitive to some tested drugs.
# TFK-1 cell line = experiment: Cell TitreGlo cell viability, TFK-1 cholangiocarcinoma cells; format: cell-based, human
# Protocol: as §1, §2, §3, §4
# KMBC cell line = experiment: Cell TitreGlo cell viability, KMBC cholangiocarcinoma cells; format: cell-based; conditions: single substance treatment, cell viability 48 h post drug addition
# Protocol: as §1, §5
# KMCH-1 cell line = experiment: Cell TitreGlo cell viability, KMCH-1 combined cholangio- and hepatocarcinoma cells; format: cell-based; conditions: single substance treatment, cell viability 48 h post drug addition
# Protocol: as §1, §5
# [1] = tested on: normal cholangiocytes, cell line H69 (CVCL_8121); conditions: read-out: H69 cell line Mono, panobinostat alone
# Excerpt: The effects of various cytotoxic agents on the toxicity of panobinostat in normal cholangiocytes was examined. The cell line H69 (CVCL_8121) was used in experimental procedures described above to determine the IC50 value for panobinostat (the primary drug) on these cells when used in combination with cytotoxic agents (secondary drug) added to the cells at their IC20 concentrations.
# The larger difference the more toxic the combination.
compound,measurement,setting,value
"Cc1[nH]c2ccccc2c1CCNCc1ccc(/C=C/C(=O)NO)cc1 [Panobinostat, (E)-N-hydroxy-3-[4-[[2-(2-methyl-1H-indol-3-yl)ethylamino]methyl]phenyl]prop-2-enamide]",IC50,"CC-SW-1 cell line; panobinostat alone, read-out: CC-SW-1 cell line Mono",18.4 nM
same,IC50,"CC-SW-1 cell line; single substance treatment, CC-SW-1, cell viability 48 h post drug addition, read-out: IC50",12 nM
same,Therapeutic index Mono,"CC-SW-1 cell line; IC50 in H69 normal cells / IC50 in CC-SW-1, panobinostat alone",3.1
same,IC50,"HuCC-T1 cell line; panobinostat alone, read-out: HuCCT-1 cell line Mono",42.4 nM
same,IC50,"HuCC-T1 cell line; single substance treatment, HuCC-T1, cell viability 48 h post drug addition, read-out: IC50",90 nM
same,Therapeutic index Mono,"HuCC-T1 cell line; IC50 in H69 normal cells / IC50 in HuCCT-1, panobinostat alone",0.9
same,IC50,"EGI-1 cell line; Homo sapiens, EGI-1, panobinostat alone, read-out: EGI-1 cell line Mono",62.9 nM
same,Therapeutic index Mono,"EGI-1 cell line; IC50 in H69 normal cells / IC50 in EGI-1, panobinostat alone",0.9
same,IC50,"EGI-1 cell line; single substance treatment, EGI-1, cell viability 48 h post drug addition, listed as panobinostat, read-out: IC50",99 nM
same,IC50,"EGI-1 cell line; single substance treatment, EGI-1, cell viability 48 h post drug addition, read-out: IC50",36 nM
same,IC50,CC-LP-1 cell line,81 nM
same,IC50,"TFK-1 cell line; Homo sapiens, 48 h, single substance treatment, TFK-1, cell viability 48 h post drug addition, read-out: IC50",70 nM
same,IC50,"TFK-1 cell line; Homo sapiens, panobinostat alone, read-out: TFK-1 cell line Mono",51.8 nM
same,Therapeutic index Mono,"TFK-1 cell line; IC50 in H69 normal cells / IC50 in TFK-1, panobinostat alone",1.1
same,IC50,"TFK-1 cell line; single substance treatment, TFK-1, cell viability 48 h post drug addition, read-out: IC50",95 nM
same,IC50,KMBC cell line,88 nM
same,IC50,KMCH-1 cell line,99 nM
same,IC50,[1],56.8 nM
